Experimental data: the NIST ThermoML archive (doi:10.1016/j.jct.2017.03.004)
± gives the expanded uncertainty stated by the source.

Assay: activity coefficient (dimensionless); of the first substance listed, at infinite dilution; xn = mol fraction of the nth substance listed
Settings: 101.33 kPa, Liquid, Chromatography, x1 = 0

Structure (SMILES) | activity coefficient (318.15 K) | activity coefficient (328.15 K) | activity coefficient (338.15 K) | activity coefficient (348.15 K) | activity coefficient (358.15 K) | activity coefficient (368.15 K) | activity coefficient (298.15 K) | activity coefficient (308.15 K)
Cc1ccccc1C [1,2-dimethylbenzene] + N#C[N-]C#N.OCCC[n+]1ccccc1 | 11.1 ± 0.8 | 11.5 ± 0.8 | 11.9 ± 0.8 | 12.3 ± 0.8 | 12.7 ± 0.9 | 13 ± 0.9 | – | –
Cc1cccc(C)c1 [1,3-dimethylbenzene] + N#C[N-]C#N.OCCC[n+]1ccccc1 | 14.4 ± 1 | 14.8 ± 1 | 15.3 ± 1 | 15.7 ± 1.1 | 16.1 ± 1.1 | 16.5 ± 1.1 | – | –
Cc1ccc(C)cc1 [1,4-dimethylbenzene] + N#C[N-]C#N.OCCC[n+]1ccccc1 | 13.8 ± 0.9 | 14.3 ± 1 | 14.8 ± 1 | 15.3 ± 1 | 15.7 ± 1.1 | 16.2 ± 1.1 | – | –
C1COCCO1 [1,4-dioxane] + N#C[N-]C#N.OCCC[n+]1ccccc1 | 1.74 ± 0.12 | 1.86 ± 0.13 | 1.99 ± 0.14 | 2.12 ± 0.14 | 2.25 ± 0.15 | 2.38 ± 0.16 | – | –
C=CCCCCCCCC [1-decene] + N#C[N-]C#N.OCCC[n+]1ccccc1 | 887 ± 61 | 829 ± 57 | 777 ± 54 | 731 ± 50 | 691 ± 48 | – | 1030 ± 71 | 954 ± 66
C=CCCCCC [1-heptene] + N#C[N-]C#N.OCCC[n+]1ccccc1 | 200 ± 14 | 190 ± 13 | 182 ± 13 | 174 ± 12 | 167 ± 11 | – | 223 ± 15 | 211 ± 15
C#CCCCCC [1-heptyne] + N#C[N-]C#N.OCCC[n+]1ccccc1 | 37.4 ± 2.6 | 38.2 ± 2.6 | 39 ± 2.7 | 39.7 ± 2.7 | 40.4 ± 2.8 | – | 35.7 ± 2.4 | 36.5 ± 2.5
C#CCCCC [1-hexyne] + N#C[N-]C#N.OCCC[n+]1ccccc1 | 21.5 ± 1.5 | 22.5 ± 1.5 | 23.4 ± 1.6 | 24.3 ± 1.7 | 25.2 ± 1.7 | – | 19.8 ± 1.4 | 20.6 ± 1.4
CCC[N+](=O)[O-] [1-nitropropane] + N#C[N-]C#N.OCCC[n+]1ccccc1 | 2.96 ± 0.2 | 3.08 ± 0.21 | 3.18 ± 0.22 | 3.28 ± 0.22 | 3.37 ± 0.23 | 3.47 ± 0.24 | – | –
C#CCCCCCC [1-octyne] + N#C[N-]C#N.OCCC[n+]1ccccc1 | 69.4 ± 4.8 | 70.2 ± 4.8 | 71.1 ± 4.9 | 71.8 ± 4.9 | 72.6 ± 5 | – | 67.5 ± 4.6 | 68.5 ± 4.7
C=CCCC [1-pentene] + N#C[N-]C#N.OCCC[n+]1ccccc1 | 66.3 ± 4.5 | 63.1 ± 4.3 | – | – | – | – | 74.6 ± 5.1 | 70.2 ± 4.8
C#CCCC [1-pentyne] + N#C[N-]C#N.OCCC[n+]1ccccc1 | 12.1 ± 0.8 | 12.6 ± 0.9 | 13.1 ± 0.9 | 13.5 ± 0.9 | 14 ± 1 | – | 11.1 ± 0.8 | 11.6 ± 0.8
CC(C)CC(C)(C)C [2,2,4-trimethylpentane] + N#C[N-]C#N.OCCC[n+]1ccccc1 | 640 ± 44 | 579 ± 40 | – | – | – | – | 800 ± 55 | 714 ± 49
CCOC(C)(C)C [2-ethoxy-2-methylpropane] + N#C[N-]C#N.OCCC[n+]1ccccc1 | 85.6 ± 5.9 | 83.9 ± 5.8 | 82.4 ± 5.6 | 80.7 ± 5.5 | 79.1 ± 5.4 | 77.9 ± 5.3 | – | –
CCC(C)(C)OC [2-methoxy-2-methylbutane] + N#C[N-]C#N.OCCC[n+]1ccccc1 | 41.8 ± 2.9 | 42 ± 2.9 | 42.1 ± 2.9 | 42.3 ± 2.9 | 42.5 ± 2.9 | 42.6 ± 2.9 | – | –
COC(C)(C)C [2-methoxy-2-methylpropane] + N#C[N-]C#N.OCCC[n+]1ccccc1 | 25.1 ± 1.7 | 25.5 ± 1.7 | 25.9 ± 1.8 | 26.2 ± 1.8 | 26.6 ± 1.8 | 26.9 ± 1.8 | – | –
CC(C)CO [2-methyl-1-propanol] + N#C[N-]C#N.OCCC[n+]1ccccc1 | 3.31 ± 0.23 | 3.26 ± 0.22 | 3.2 ± 0.22 | 3.15 ± 0.21 | 3.11 ± 0.21 | 3.06 ± 0.21 | – | –
CC(C)(C)O [2-methylpropan-2-ol] + N#C[N-]C#N.OCCC[n+]1ccccc1 | 3.08 ± 0.21 | 3.08 ± 0.21 | 3.07 ± 0.21 | 3.07 ± 0.21 | 3.07 ± 0.21 | 3.05 ± 0.21 | – | –
CCC(C)CC [3-methylpentane] + N#C[N-]C#N.OCCC[n+]1ccccc1 | 286 ± 20 | 272 ± 19 | – | – | – | – | 321 ± 22 | 302 ± 21
C=C(C)c1ccccc1 [(1-methylethenyl)benzene] + N#C[N-]C#N.OCCC[n+]1ccccc1 | 11.3 ± 0.8 | 12 ± 0.8 | 12.7 ± 0.9 | 13.3 ± 0.9 | 14 ± 1 | 14.6 ± 1 | – | –
CC(C)=O [acetone] + N#C[N-]C#N.OCCC[n+]1ccccc1 | 1.87 ± 0.13 | 1.97 ± 0.13 | 2.05 ± 0.14 | 2.14 ± 0.15 | 2.23 ± 0.15 | 2.31 ± 0.16 | – | –
CC#N [acetonitrile] + N#C[N-]C#N.OCCC[n+]1ccccc1 | 1.24 ± 0.08 | 1.29 ± 0.08 | 1.34 ± 0.09 | 1.38 ± 0.09 | 1.43 ± 0.09 | 1.48 ± 0.1 | – | –
c1ccccc1 [benzene] + N#C[N-]C#N.OCCC[n+]1ccccc1 | 5.02 ± 0.34 | 5.18 ± 0.35 | 5.36 ± 0.37 | 5.53 ± 0.38 | 5.69 ± 0.39 | 5.85 ± 0.4 | – | –
CCCCO [butan-1-ol] + N#C[N-]C#N.OCCC[n+]1ccccc1 | 3.29 ± 0.22 | 3.23 ± 0.22 | 3.18 ± 0.22 | 3.13 ± 0.21 | 3.09 ± 0.21 | 3.05 ± 0.21 | – | –
CCC(C)O (configuration not stated) [butan-2-ol] + N#C[N-]C#N.OCCC[n+]1ccccc1 | 3.23 ± 0.22 | 3.18 ± 0.22 | 3.13 ± 0.21 | 3.09 ± 0.21 | 3.05 ± 0.21 | 3.02 ± 0.21 | – | –
CCCC=O [butanal] + N#C[N-]C#N.OCCC[n+]1ccccc1 | 4.09 ± 0.28 | 4.21 ± 0.29 | 4.3 ± 0.29 | 4.39 ± 0.3 | 4.49 ± 0.31 | 4.57 ± 0.31 | – | –
C1CCCCCC1 [cycloheptane] + N#C[N-]C#N.OCCC[n+]1ccccc1 | 139 ± 10 | 130 ± 9 | 122 ± 8 | 115 ± 8 | 109 ± 7 | – | 161 ± 11 | 149 ± 10
C1CCCCC1 [cyclohexane] + N#C[N-]C#N.OCCC[n+]1ccccc1 | 105 ± 7 | 99.8 ± 6.8 | 95 ± 6.5 | 90.7 ± 6.2 | 86.9 ± 6 | – | 118 ± 8 | 111 ± 8
C1=CCCCC1 [cyclohexene] + N#C[N-]C#N.OCCC[n+]1ccccc1 | 36.6 ± 2.5 | 35.8 ± 2.4 | 34.8 ± 2.4 | 34 ± 2.3 | 33.4 ± 2.3 | – | 38.7 ± 2.6 | 37.6 ± 2.6
